According to US11981686B2, “Urea compound having substituent” (DAIICHI SANKYO COMPANY, LIMITED, priority 2019, dated 2024):

The compounds below were run against SIRT6 enzyme (Homo sapiens, UniProt Q8N6T7) (assay: Measurement of deacetylation activity (SIRT6, AlphaLISA, H3K9(Ac) peptide)). Settings: SIRT6 25 ng/mL, H3K9(Ac) biotin peptide 2 nM, NAD 10 μM, room temperature 30 minutes, duplicate.
Assay type: biochemical
Summary of the method: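 Activation read as EC150, the concentration giving 150% activity relative to enzyme/no-enzyme DMSO controls, via variable-slope fit. Deacetylation of 2 nM biotinylated H3K9(Ac) peptide with 10 μM NAD+ by 25 ng/mL SIRT6 ran 30 min at room temperature, pH 8.0, then AlphaLISA detection of unmodified H3K9.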

Chain of SIRT6 enzyme (Q8N6T7 whole entry, species assumed): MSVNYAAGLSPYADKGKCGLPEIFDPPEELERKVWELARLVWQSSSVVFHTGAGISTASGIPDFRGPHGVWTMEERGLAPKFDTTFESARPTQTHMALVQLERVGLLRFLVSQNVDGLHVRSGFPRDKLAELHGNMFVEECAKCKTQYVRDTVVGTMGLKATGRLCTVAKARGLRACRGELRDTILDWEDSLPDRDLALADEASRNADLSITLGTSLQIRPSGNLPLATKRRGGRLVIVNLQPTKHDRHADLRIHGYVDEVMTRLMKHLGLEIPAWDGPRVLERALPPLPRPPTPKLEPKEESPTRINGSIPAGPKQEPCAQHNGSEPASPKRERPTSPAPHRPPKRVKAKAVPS

Row | Structure (SMILES) | EC150 (the concentration of the compound showing a relative enzyme activity of 150%)
1 | O=C(Nc1nc2c(s1)[C@@H]1COC[C@H](C2)N1c1ncc(-c2cccc(OC(F)F)n2)o1)NC1(CO)CC1 [Example 181, N-[(4S,8S)-10-{5-[6-(difluoromethoxy)pyridin-2-yl]-1,3-oxazol-2-yl}-4,7,8,9-tetrahydro-5H-4,8-epiminooxocino[5,4-d][1,3]thiazol-2-yl]-N′-[1-(hydroxymethyl)cyclopropyl]urea] | 0.53 μm
2 | CC(=O)N1CC[C@@H](NC(=O)Nc2nc3c(s2)[C@@H]2COC[C@H](C3)N2c2ncc(-c3cccc(OC(F)F)n3)o2)C1 [Example 182, N-[(3R)-1-acetylpyrrolidin-3-yl]-N′-[(4S,8S)-10-{5-[6-(difluoromethoxy)pyridin-2-yl]-1,3-oxazol-2-yl}-4,7,8,9-tetrahydro-5H-4,8-epiminooxocino[5,4-d][1,3]thiazol-2-yl]urea] | 0.16 μm
3 | CC(=O)N1CC(NC(=O)Nc2nc3c(s2)[C@@H]2COC[C@H](C3)N2c2ncc(-c3cccc(OC(F)F)n3)o2)C1 [Example 183, N-(1-acetylazetidin-3-yl)-N′-[(4S,8S)-10-{5-[6-(difluoromethoxy)pyridin-2-yl]-1,3-oxazol-2-yl}-4,7,8,9-tetrahydro-5H-4,8-epiminooxocino[5,4-d][1,3]thiazol-2-yl]urea] | 0.24 μm
4 | COc1cccc(-c2cnc(N3[C@@H]4COC[C@H]3c3sc(NC(=O)NCC(C)(C)O)nc3C4)o2)n1 [Example 184, N-(2-hydroxy-2-methylpropyl)-N′-{(4S,8S)-10-[5-(6-methoxypyridin-2-yl)-1,3-oxazol-2-yl]-4,7,8,9-tetrahydro-5H-4,8-epiminooxocino[5,4-d][1,3]thiazol-2-yl}urea] | 0.91 μm
5 | COc1cccc(-c2cnc(N3[C@@H]4COC[C@H]3c3sc(NC(=O)N[C@@H]5CCOC5)nc3C4)o2)n1 [Example 185, N-{(4S,8S)-10-[5-(6-methoxypyridin-2-yl)-1,3-oxazol-2-yl]-4,7,8,9-tetrahydro-5H-4,8-epiminooxocino[5,4-d][1,3]thiazol-2-yl}-N′-[(3R)-oxolan-3-yl]urea] | 0.4 μm
6 | COc1cccc(-c2cnc(N3[C@@H]4COC[C@H]3c3sc(NC(=O)NC5CCOCC5)nc3C4)o2)n1 [Example 186, N-{(4S,8S)-10-[5-(6-methoxypyridin-2-yl)-1,3-oxazol-2-yl]-4,7,8,9-tetrahydro-5H-4,8-epiminooxocino[5,4-d][1,3]thiazol-2-yl}-N′-oxan-4-ylurea] | 0.48 μm
7 | COc1cccc(-c2cnc(N3[C@@H]4COC[C@H]3c3sc(NC(=O)N[C@H]5CC[C@@H](O)CC5)nc3C4)o2)n1 [Example 187, N-[(1s,4s)-4-hydroxycyclohexyl]-N′-{(4S,8S)-10-[5-(6-methoxypyridin-2-yl)-1,3-oxazol-2-yl]-4,7,8,9-tetrahydro-5H-4,8-epiminooxocino[5,4-d][1,3]thiazol-2-yl}urea] | 0.64 μm
8 | COc1cccc(-c2cnc(N3[C@@H]4COC[C@H]3c3sc(NC(=O)N[C@H]5CC[C@H](O)CC5)nc3C4)o2)n1 [Example 188, N-[(1r,4r)-4-hydroxycyclohexyl]-N′-{(4S,8S)-10-[5-(6-methoxypyridin-2-yl)-1,3-oxazol-2-yl]-4,7,8,9-tetrahydro-5H-4,8-epiminooxocino[5,4-d][1,3]thiazol-2-yl}urea] | 0.4 μm
9 | COc1ccc2oc(N3CCc4nc(NC(=O)N[C@H](C)CO)sc4C3)nc2c1 [Example 189, N-[(2R)-1-hydroxypropan-2-yl]-N′-[5-(5-methoxy-1,3-benzoxazol-2-yl)-4,5,6,7-tetrahydro[1,3]thiazolo[5,4-c]pyridin-2-yl]urea] | 0.38 μm
10 | COc1ccc2oc(N3Cc4sc(NC(=O)NCC(C)(C)O)nc4CC3(C)C)nc2c1 [Example 190, N-(2-hydroxy-2-methylpropyl)-N′-[5-(5-methoxy-1,3-benzoxazol-2-yl)-6,6-dimethyl-4,5,6,7-tetrahydro[1,3]thiazolo[5,4-c]pyridin-2-yl]urea] | 1.7 μm
11 | C[C@H](CO)NC(=O)Nc1nc2c(s1)CN(c1nccc(C3CCCOC3)n1)CC2 (stereo partly drawn) [Example 191, N-[(2R)-1-hydroxypropan-2-yl]-N′-{5-[4-(oxan-3-yl)pyrimidin-2-yl]-4,5,6,7-tetrahydro[1,3]thiazolo[5,4-c]pyridin-2-yl}urea] | 1.2 μm
12 | O=C(Nc1nc2c(s1)CN(c1nccc(C3CCCOC3)n1)CC2)N[C@H]1C[C@H](O)C1 (stereo partly shown) [Example 192, N-[(1r,3r)-3-hydroxycyclobutyl]-N′-{5-[4-(oxan-3-yl)pyrimidin-2-yl]-4,5,6,7-tetrahydro[1,3]thiazolo[5,4-c]pyridin-2-yl}urea] | 0.44 μm
13 | COc1nc(-c2cnc(N3[C@@H]4COC[C@H]3c3sc(NC(=O)N[C@H](C)CO)nc3C4)o2)ccc1C [Example 193, N-[(2R)-1-hydroxypropan-2-yl]-N′-{(4S,8S)-10-[5-(6-methoxy-5-methylpyridin-2-yl)-1,3-oxazol-2-yl]-4,7,8,9-tetrahydro-5H-4,8-epiminooxocino[5,4-d][1,3]thiazol-2-yl}urea] | 1.8 μm
